This experiment relates to Swiss mice, Sarcoma 180 sc, mean tumor weight T/C. The experiment can be described thus: NCI In Vivo Anticancer Drug Screen. Data for tumor model Sarcoma 180 (subcutaneous) in Swiss mice. As to conditions: endpoint: mean tumor weight, higher = larger tumour. Summed up:
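Antitumor activity is assessed in mice with transplantable tumors. Treated (T) and vehicle control (C) groups are compared on survival or tumor size.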

Setting [1] is: dose: 125.0 mg/kg/injection, schedule: Q01DX007 (sc), vehicle: steriod suspending solution.
The mark [2] stands for this setting: dose: 500.0 mg/kg/injection, schedule: Q01DX007 (sc), vehicle: steriod suspending solution.
The mark [3] stands for this setting: dose: 125.0 mg/kg/injection, schedule: Q01DX007 (ip), vehicle: carboxymethylcellulose (CMC).
Where [4] appears, read: dose: 250.0 mg/kg/injection, schedule: Q01DX007 (ip), vehicle: carboxymethylcellulose (CMC).

Molecules are shown by their SMILES. Values joined by “and” are separate entries in the source; they are usually repeats but may differ in a detail not shown here. Equal values may be shown once.

Take `CCOC(C)C(/C=N/NC(N)=S)=NNC(N)=S` (stereo not drawn): the T/C (dose: 15.0 mg/kg/injection, schedule: Q01DX007 (ip), vehicle: saline) is 82 % of control; the T/C (dose: 30.0 mg/kg/injection, schedule: Q01DX007 (ip), vehicle: saline) is 37 % of control; the T/C (dose: 60.0 mg/kg/injection, schedule: Q01DX007 (ip), vehicle: saline) is 47 % of control; the T/C (dose: 120.0 mg/kg/injection, schedule: Q01DX007 (ip), vehicle: saline) was 20 % of control.
Turning to `NC1=CC(=O)c2ccccc2C1=O`, the T/C runs as follows: (dose: 31.0 mg/kg/injection, schedule: Q01DX007 (ip), vehicle: other) 73 % of control; (dose: 62.0 mg/kg/injection, schedule: Q01DX007 (ip), vehicle: other) 83 % of control.
With `CC[C@]1(O)C[C@H]2CN(CCc3c([nH]c4ccccc34)[C@@](C(=O)OC)(c3cc4c(cc3OC)N(C=O)[C@H]3[C@@](O)(C(=O)OC)[C@H](OC(C)=O)[C@]5(CC)C=CCN6CC[C@]43[C@@H]65)C2)C1`, the T/C (dose: 0.12 mg/kg/injection, schedule: Q01DX007 (ip), vehicle: saline) is 57 % of control.
With `Cc1n[nH]c(=O)[nH]c1=O`, the T/C was 95 % of control (dose: 500.0 mg/kg/injection, schedule: Q01DX007 (ip), vehicle: other) and 83 % of control (dose: 750.0 mg/kg/injection, schedule: Q01DX007 (ip), vehicle: other).
For the molecule `CC(=O)[C@@]1(O)CC[C@H]2[C@@H]3C[C@H](C)C4=CC(=O)C=C[C@]4(C)[C@@]3(F)[C@@H](O)C[C@@]21C`, the T/C (dose: 6.9 mg/kg/injection, schedule: Q01DX007 (sc), vehicle: steriod suspending solution) is 102 % of control; the T/C (dose: 16.0 mg/kg/injection, schedule: Q01DX007 (sc), vehicle: steriod suspending solution) was 76 % of control; the T/C (dose: 17.0 mg/kg/injection, schedule: Q01DX007 (sc), vehicle: steriod suspending solution) is 60 % of control; the T/C (dose: 24.0 mg/kg/injection, schedule: Q01DX007 (sc), vehicle: steriod suspending solution) is 78 % of control; the T/C (dose: 26.0 mg/kg/injection, schedule: Q01DX007 (sc), vehicle: steriod suspending solution) was 19 % of control and 23 % of control; the T/C (dose: 27.5 mg/kg/injection, schedule: Q01DX007 (sc), vehicle: steriod suspending solution) was 65 % of control. Besides, the T/C was 33 % of control (dose: 27.5 mg/kg/injection, schedule: Q#A X014 (sc), vehicle: steriod suspending solution); 57 % of control (dose: 36.5 mg/kg/injection, schedule: Q01DX007 (sc), vehicle: steriod suspending solution); 17 % of control and 23 % of control and 36 % of control (dose: 40.0 mg/kg/injection, schedule: Q01DX007 (sc), vehicle: steriod suspending solution); 40 % of control (dose: 41.5 mg/kg/injection, schedule: Q#A X014 (sc), vehicle: steriod suspending solution); 29 % of control (dose: 60.0 mg/kg/injection, schedule: Q01DX007 (sc), vehicle: steriod suspending solution); 34 % of control and 45 % of control (dose: 62.5 mg/kg/injection, schedule: Q#A X014 (sc), vehicle: steriod suspending solution). Besides, the T/C reads like this: (dose: 83.0 mg/kg/injection, schedule: Q01DX007 (sc), vehicle: steriod suspending solution) 38 % of control; (dose: 85.0 mg/kg/injection, schedule: Q01DX007 (sc), vehicle: steriod suspending solution) 34 % of control; (dose: 90.0 mg/kg/injection, schedule: Q01DX007 (sc), vehicle: steriod suspending solution) 18 % of control; under setting [1], 17 % of control; (dose: 135.0 mg/kg/injection, schedule: Q01DX007 (sc), vehicle: steriod suspending solution) 19 % of control; (dose: 188.0 mg/kg/injection, schedule: Q01DX007 (sc), vehicle: steriod suspending solution) 46 % of control. In addition, the T/C is 25 % of control and 26 % of control (dose: 282.0 mg/kg/injection, schedule: Q01DX007 (sc), vehicle: steriod suspending solution); 34 % of control (dose: 300.0 mg/kg/injection, schedule: Q01DX007 (sc), vehicle: steriod suspending solution); 20 % of control and 39 % of control (dose: 423.0 mg/kg/injection, schedule: Q01DX007 (sc), vehicle: steriod suspending solution); 3 % of control under setting [2]; 30 % of control (dose: 600.0 mg/kg/injection, schedule: Q01DX007 (sc), vehicle: steriod suspending solution); 15 % of control (dose: 630.0 mg/kg/injection, schedule: Q01DX007 (sc), vehicle: steriod suspending solution). For the same molecule, the T/C reads like this: (dose: 900.0 mg/kg/injection, schedule: Q01DX007 (sc), vehicle: steriod suspending solution) 27 % of control; (dose: 945.0 mg/kg/injection, schedule: Q01DX007 (sc), vehicle: steriod suspending solution) 22 % of control; (dose: 1400.0 mg/kg/injection, schedule: Q01DX007 (sc), vehicle: steriod suspending solution) 14 % of control.
Take `CCOC(=O)C(Cc1ccccc1)c1ccc(Cl)cc1` (stereo not drawn): the T/C by setting is: (dose: 62.5 mg/kg/injection, schedule: Q01DX007 (ip), vehicle: methylcellulose (MC)) 67 % of control; (dose: 125.0 mg/kg/injection, schedule: Q01DX007 (ip), vehicle: methylcellulose (MC)) 75 % of control; (dose: 250.0 mg/kg/injection, schedule: Q01DX007 (ip), vehicle: methylcellulose (MC)) 118 % of control.
As to `CC(=O)[C@H]1CC[C@H]2[C@@H]3CCC4=CC(=O)CC[C@]4(C)[C@H]3CC[C@]12C`, the T/C was 89 % of control under setting [1]; 76 % of control (dose: 250.0 mg/kg/injection, schedule: Q01DX007 (sc), vehicle: steriod suspending solution); 61 % of control under setting [2]; 79 % of control (dose: 1000.0 mg/kg/injection, schedule: Q01DX007 (sc), vehicle: steriod suspending solution).
As for `CNNCc1ccc(C(=O)NC(N)=O)cc1`, the T/C (dose: 100.0 mg/kg/injection, schedule: Q01DX007 (ip), vehicle: saline) was 40 % of control; the T/C under setting [3] is 38 % of control; the T/C (dose: 148.0 mg/kg/injection, schedule: Q01DX007 (ip), vehicle: saline) was 42 % of control; the T/C (dose: 222.0 mg/kg/injection, schedule: Q01DX007 (ip), vehicle: saline) was 18 % of control; the T/C under setting [4] was 30 % of control; the T/C (dose: 333.0 mg/kg/injection, schedule: Q01DX007 (ip), vehicle: saline) is 37 % of control.
For `COC(=O)c1ccccc1NC(c1ccccn1)c1ccc2cccnc2c1O` (stereo not drawn), the T/C runs as follows: (dose: 62.0 mg/kg/injection, schedule: Q01DX007 (ip), vehicle: carboxymethylcellulose (CMC)) 115 % of control; under setting [3], 104 % of control; under setting [4], 88 % of control; (dose: 500.0 mg/kg/injection, schedule: Q01DX007 (ip), vehicle: carboxymethylcellulose (CMC)) 88 % of control.
On to `NNc1nncc2ccccc12`, for which the T/C runs as follows: (dose: 37.5 mg/kg/injection, schedule: Q01DX007 (ip), vehicle: carboxymethylcellulose (CMC)) 116 % of control; (dose: 75.0 mg/kg/injection, schedule: Q01DX007 (ip), vehicle: carboxymethylcellulose (CMC)) 100 % of control.
Turning to `c1ccc(CNc2ncnc3[nH]ncc23)cc1`, the T/C (dose: 8.0 mg/kg/injection, schedule: Q01DX007 (ip), vehicle: carboxymethylcellulose (CMC)) is 87 % of control; the T/C (dose: 16.0 mg/kg/injection, schedule: Q01DX007 (ip), vehicle: carboxymethylcellulose (CMC)) is 106 % of control; the T/C (dose: 31.0 mg/kg/injection, schedule: Q01DX007 (ip), vehicle: carboxymethylcellulose (CMC)) is 62 % of control.
As to `N#[N+]c1n[nH]nc1C(N)=O`, the T/C by setting is: (dose: 12.5 mg/kg/injection, schedule: Q01DX007 (ip), vehicle: carboxymethylcellulose (CMC)) 114 % of control; (dose: 25.0 mg/kg/injection, schedule: Q01DX007 (ip), vehicle: carboxymethylcellulose (CMC)) 74 % of control.
On to `CCN(CC)CCOC(=O)c1ccc(N)cc1`, for which the T/C (dose: 75.0 mg/kg/injection, schedule: Q#A X014 (ip), vehicle: saline) is 92 % of control.
Regarding `CN(CC(=O)O)C(=N)N`, the T/C runs as follows: (dose: 1500.0 mg/kg/injection, schedule: Q#A X014 (ip), vehicle: water) 92 % of control; (dose: 2500.0 mg/kg/injection, schedule: Q#A X014 (ip), vehicle: water) 74 % of control.
On to `CC(CNC(=O)CCBr)NC(=O)CCBr` (stereo not drawn), for which the T/C (dose: 110.0 mg/kg/injection, schedule: Q01DX007 (ip), vehicle: carboxymethylcellulose (CMC)) is 48 % of control and 64 % of control; the T/C (dose: 167.8 mg/kg/injection, schedule: Q01DX007 (ip), vehicle: carboxymethylcellulose (CMC)) was 48 % of control; the T/C (dose: 168.0 mg/kg/injection, schedule: Q01DX007 (ip), vehicle: carboxymethylcellulose (CMC)) is 34 % of control.
Consider `CC(=O)OC(C)(C)/C=C/C(=O)[C@](C)(O)[C@H]1[C@H](O)C[C@@]2(C)[C@@H]3CC=C4[C@@H](C[C@H](O)C(=O)C4(C)C)[C@]3(C)C(=O)C[C@]12C`, for which the T/C by setting is: (dose: 0.4 mg/kg/injection, schedule: Q01DX007 (ip), vehicle: saline) 58 % of control; (dose: 0.8 mg/kg/injection, schedule: Q01DX007 (ip), vehicle: saline) 84 % of control.

What is called T/C is the result in the treated group divided by that in the control group, in per cent.

The values are drawn from PubChem BioAssay AID342 (DTP/NCI, 2004).
